From patent US4563461A, “Selective method for blocking 5HT2 receptors” (Eli Lilly and Company, priority 1983, dated 1986) come the findings set out here.

For test [1], the target named is T1, alpha receptors (Rattus norvegicus, UniProt P23944).
T1 construct: their external jugular veins and thoracic aortas dissected free of connective tissue; from tissue; host or cells: thoracic aorta of male Wistar rats
T1 sequence (P23944 1-561): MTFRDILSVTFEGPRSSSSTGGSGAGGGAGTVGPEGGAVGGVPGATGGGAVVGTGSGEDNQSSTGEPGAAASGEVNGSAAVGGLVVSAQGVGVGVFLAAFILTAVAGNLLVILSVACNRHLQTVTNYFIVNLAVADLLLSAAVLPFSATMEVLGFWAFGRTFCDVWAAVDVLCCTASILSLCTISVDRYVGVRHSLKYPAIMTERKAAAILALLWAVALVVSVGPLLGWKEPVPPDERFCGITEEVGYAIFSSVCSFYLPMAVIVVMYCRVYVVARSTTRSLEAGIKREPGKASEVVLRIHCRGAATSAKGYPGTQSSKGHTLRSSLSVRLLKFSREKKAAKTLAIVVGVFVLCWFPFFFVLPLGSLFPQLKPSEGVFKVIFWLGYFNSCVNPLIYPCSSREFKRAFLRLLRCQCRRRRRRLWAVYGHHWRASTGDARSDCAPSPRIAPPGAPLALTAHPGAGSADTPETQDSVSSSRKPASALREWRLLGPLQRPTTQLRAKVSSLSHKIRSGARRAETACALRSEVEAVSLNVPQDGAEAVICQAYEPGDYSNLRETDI
Description: Antagonism of norepinephrine contraction in isolated rat aorta (apparent dissociation constant, dose ratio). It is filed as cell-based. Particulars: for Dose-Ratio (norepinephrine ED50 with test compound / control ED50): 10^-5 molar test compound. As to the method:
(§1) The apparent dissociation constants (KB) are a measure of affinity for 5HT2 and alpha receptors and are expressed as the negative logarithm and are determined according to the following protocol.
(§2) Male Wistar rats (150-300 gram weight) were killed and their external jugular veins and thoracic aortas dissected free of connective tissue, cannulated in situ and placed in a modified Krebs' bicarbonate buffer in a suitable tissue bath. Two L-shaped 30-gauge stainless-steel hypodermic needles were inserted in each cannula and the dissected vessels gently pushed onto the needles. One needle was attached with thread to a stationary glass rod and the other to the transducer. [The procedure employed was that described by Hooker, Calkins and Fleisch, Blood Vessels, 14, 1, (1977) for use with circular smooth muscle preparations.]
(§3) The modified Krebs' bicarbonate buffer had the following makeup: (concentrations in millimoles): sodium chloride, 118.2; potassium chloride, 4.6; calcium chloride dihydrate, 1.6; potassium dihydrogenphosphate, 1.2; magnesium sulfate, 1.2; dextrose, 10.0; sodium bicarbonate, 24.8; and water q.s. to 1000 g. The tissue baths were maintained at 37° C. and were aerated with 95% oxygen-5% CO2. An initial optimum resting force of 1 and 4 g. was applied to the jugular vein and aorta, respectively. Isometric contractions were recorded as changes in grams of force on a Beckman Dynograph with Statham UC-3 transducers and microscale accessory attachment. Tissues were allowed to equilibrate 1 to 2 hours before exposure to drugs. Control responses to serotonin in the jugular vein and to norepinephrine in the aorta were obtained. The vessels were then incubated with appropriate concentrations of antagonist for one hour. Responses to serotonin or to norepinephrine were then repeated in the presence of the antagonist. Contraction to serotonin was evaluated in the jugular vein since this tissue produces marked responses to serotonin in the absence of alpha receptors--see Cohen and Wiley, J. Pharm. Exp. Ther., 205, 400 (1978). Alpha receptor antagonist activity was evaluated in the aorta.
(§4) Apparent antagonist dissociation constants were determined for each concentration of antagonist according to the following equation: [formula] wherein [B] is the concentration of the antagonist and the dose ratio is the ED50 of the agonist in the presence of the antagonist divided by the control ED50.
The in vitro rat aorta preparation described above was used.

In test [2] the test system is alpha receptors. Description: Shift of methoxamine pressor response in pithed SHR. The test is classed as in vivo, rat. The conditions noted are these: i.p., 10 mg./kg. The protocol:
SHR were anesthesized with halothane, femoral arterial and venous catheters implanted as before and the trachea cannulated. Each rat was pithed by passing a steel rod through the right orbit and down the entire length of the spinal column. The steel rod remained in place for the duration of the experiment. Immediately after pithing, the rats were ventilated with room air via a rodent respirator which eliminated any anesthetic effects. An equilibration period of 15 minutes was observed prior to control measurements and administration of drugs or vehicle i.p. Increasing doses of serotonin or methoxamine were injected i.v. 15 minutes after the equilibration period. The response was recorded and the blood pressure allowed to recover to control levels. […] The test drug was prepared fresh daily and administered by the intraperitoneal route. The compound shifted the serotonin response 22 and 480 fold at 0.1 and 3 mg./kg. dosages whereas at a 10 mg./kg. dose there was no shift in the response to methoxamine, an alpha agonist.

Test [3] in a line: Blood pressure in spontaneously hypertensive rats (SHR). The test is classed as in vivo, rat. Particulars: intraperitoneal, 10 mg./kg. The protocol:
In spontaneously hypertensive rats (SHR), in which blockade of alpha receptors but not 5HT2 receptors lowers blood pressure, there was no effect upon intraperitoneal administration of 1-isopropyl-6-methyl-8β-(1-methyl-2-hydroxy)propoxycarbonyl-5R-ergoline at a 10 mg./kg. dose.

The target in test [4] is T2, 5HT2 receptors (Rattus norvegicus, UniProt P14842).
T2 construct: their external jugular veins and thoracic aortas dissected free of connective tissue; from tissue; host or cells: external jugular vein of male Wistar rats
Description: Antagonism of serotonin contraction in isolated rat jugular vein (apparent dissociation constant). The conditions noted are these: for Ratio KB alpha / KB 5HT2: rat aorta KB over rat jugular vein KB; for Kb: rat jugular vein, agonist serotonin, antagonist incubated one hour, n in parentheses, read-out: 5HT2 -Log KB ± S.E. (converted). It is filed as cell-based. As to the method: as §1, §2, §3, §4

Test [5] has as its target T2, 5HT2 receptors. It is filed as in vivo. The conditions noted are these: pithed SHR, i.p. As to the method:
SHR were anesthesized with halothane, femoral arterial and venous catheters implanted as before and the trachea cannulated. Each rat was pithed by passing a steel rod through the right orbit and down the entire length of the spinal column. The steel rod remained in place for the duration of the experiment. Immediately after pithing, the rats were ventilated with room air via a rodent respirator which eliminated any anesthetic effects. […] The response was recorded and the blood pressure allowed to recover to control levels. […] The test drug was prepared fresh daily and administered by the intraperitoneal route.

Where [6] appears, read: rat aorta, agonist norepinephrine, antagonist incubated one hour, n in parentheses, read-out: alpha -Log KB ± S.E. (converted).

Like-named read-outs stand apart in the source and are kept apart here.

T2 sequence (P14842 whole entry): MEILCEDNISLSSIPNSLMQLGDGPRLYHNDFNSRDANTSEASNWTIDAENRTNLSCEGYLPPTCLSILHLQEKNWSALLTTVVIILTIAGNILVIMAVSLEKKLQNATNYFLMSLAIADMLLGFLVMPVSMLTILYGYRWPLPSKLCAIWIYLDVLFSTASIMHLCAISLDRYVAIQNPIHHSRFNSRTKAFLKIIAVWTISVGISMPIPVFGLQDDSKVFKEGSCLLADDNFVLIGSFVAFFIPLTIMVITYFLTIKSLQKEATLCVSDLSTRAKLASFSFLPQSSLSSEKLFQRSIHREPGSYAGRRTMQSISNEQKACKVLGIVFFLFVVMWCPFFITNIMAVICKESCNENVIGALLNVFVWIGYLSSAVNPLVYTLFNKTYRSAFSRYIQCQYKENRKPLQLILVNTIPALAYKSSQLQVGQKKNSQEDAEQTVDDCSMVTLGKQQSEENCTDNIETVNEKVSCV

As to `C=CCn1cc2c3c(cccc31)[C@H]1C[C@@H](C(=O)OCCO)CN(C)[C@@H]1C2` [1-allyl-6-methyl-8β-(2-hydroxy)ethoxycarbonyl-5R-ergoline], on alpha receptors [1] (rat aorta), the “Dose-Ratio (norepinephrine ED50 with test compound / control ED50)” value amounted to 2.4.

The Kb is the affinity of an antagonist, worked out from how it opposes an agonist. `CC(O)C(C)OC(=O)[C@@H]1C[C@@H]2c3cccc4c3c(cn4C(C)C)C[C@H]2N(C)C1` (stereo partly drawn) [1-isopropyl-6-methyl-8β-(1-methyl-2-hydroxy)propoxycarbonyl-5R-ergoline]: the “Shift in the response to methoxamine” value in the test on alpha receptors [2] is reported as “no shift”. In addition, the “Effect on blood pressure” value in test [3] is listed as “no effect”. At 5HT2 receptors [4], the “Ratio KB alpha / KB 5HT2” value is 300,000. The Kb on 5HT2 receptors [4] was 0.0537 nM; at alpha receptors [1] it was 13800 nM. In addition, on alpha receptors [1] (rat aorta), the “Dose-Ratio (norepinephrine ED50 with test compound / control ED50)” value was found to be 3.6. Besides, the “Shift of the serotonin response” value on 5HT2 receptors [5] (0.1 mg./kg.) is 22 fold; at 5HT2 receptors [5] (3 mg./kg.), 480 fold.

In the case of `CC(O)COC(=O)[C@@H]1C[C@@H]2c3cccc4c3c(cn4C(C)C)C[C@H]2N(C)C1` (stereo partly drawn) [1-isopropyl-6-methyl-8β-(2-hydroxy)propoxycarbonyl-5R-ergoline], the “Dose-Ratio (norepinephrine ED50 with test compound / control ED50)” value on alpha receptors [1] (rat aorta) was 1.0.

Consider `CNCC12CCC(c3ccccc31)c1ccccc12` [Benzoctamine], for which, at 5HT2 receptors [4], the “Ratio KB alpha / KB 5HT2” value worked out at 16 and the Kb is 15.8 nM. Besides, the Kb at alpha receptors [1] was 251 nM.

`O=C(c1ccc(F)cc1)C1CCN(CCn2c(=O)[nH]c3ccccc3c2=O)CC1` [Ketanserin, reference compound]: the Kb at alpha receptors [1] (setting [6]) is 12.6 nM.

Regarding `Cc1cc(CCN2CCN(c3cccc(Cl)c3)CC2)n[nH]1` [Mepiprazole], on 5HT2 receptors [4], the “Ratio KB alpha / KB 5HT2” value is reported as 0.4 and the Kb was 12.6 nM. For the same compound, on alpha receptors [1] (setting [6]), the antagonist equilibrium constant (Kb) was 5.01 nM.

Turning to `O=c1n(CCCN2CCN(c3cccc(Cl)c3)CC2)nc2ccccn12` [Trazodone, reference compound], the Kb on alpha receptors [1] was 158 nM.
